Our source for the IC50 and Selectivity Index values is ChEMBL document CHEMBL5247634, “Design, synthesis and anticancer evaluation of selective 2,4-disubstituted pyrimidine CDK9 inhibitors” (Eur J Med Chem, 2022).

One assay concerns A-431. Briefly: Antiproliferative activity against human A-431 cells assessed as cell growth inhibition measured after 72 hrs by MTT assay. It is filed as functional, cell-based. Particulars: A-431, 72 h.
A further assay relates to NCI-H1975. Put plainly: Antiproliferative activity against human NCI-H1975 cells assessed as cell growth inhibition measured after 72 hrs by MTT assay. The class given is functional, cell-based. The conditions noted are these: NCI-H1975, 72 h.
The next assay concerns PANC-1. Briefly: Antiproliferative activity against human PANC-1 cells assessed as cell growth inhibition measured after 72 hrs by MTT assay. The class given is functional, cell-based. Particulars: PANC-1, 72 h.
The next assay has as its system HCT-116. Briefly: Antiproliferative activity against human HCT-116 cells assessed as cell growth inhibition measured after 72 hrs by MTT assay. It is filed as functional, cell-based. The conditions noted are these: HCT-116, 72 h.
For another assay, the target named is CDK9/cyclin T1 (Homo sapiens, UniProt P50750). Put plainly: Inhibition of CDK9/cyclin T1 (unknown origin) using as PDKtide substrate incubated for 1 hr in presence of ATP by ADP-glo luminescent assay. The class given is protein-complex assay.
The species entered for a further assay is Homo sapiens. Put plainly: Selectivity index, ratio of IC50 for CDK2/cyclin A (unknown origin) to IC50 for CDK9/cyclin T1 (unknown origin).
For assay [1], the target named is Cyclin-dependent kinase 2/cyclin A (Homo sapiens, UniProt P24941). Put plainly: Inhibition of CDK2/cyclin A (unknown origin) incubated for 1 hr in presence of ATP by ADP-glo luminescent assay. It is filed as protein-complex assay.
Another assay has as its system L02. Put plainly: Antiproliferative activity against human L02 cells assessed as cell growth inhibition measured after 72 hrs by MTT assay. It is filed as functional, cell-based. Particulars: L02, 72 h.
The next assay relates to A549. Put plainly: Antiproliferative activity against human A549 cells assessed as cell growth inhibition measured after 72 hrs by MTT assay. The class given is functional, cell-based. Particulars: A549, 72 h.
Assay [2] addresses Cyclin-dependent kinase 2 (Homo sapiens, UniProt P24941).
Description: Inhibition of CDK2 (unknown origin)

Bounds are passed on as bounds.

Sequence of CDK9/cyclin T1 (O60563 whole entry): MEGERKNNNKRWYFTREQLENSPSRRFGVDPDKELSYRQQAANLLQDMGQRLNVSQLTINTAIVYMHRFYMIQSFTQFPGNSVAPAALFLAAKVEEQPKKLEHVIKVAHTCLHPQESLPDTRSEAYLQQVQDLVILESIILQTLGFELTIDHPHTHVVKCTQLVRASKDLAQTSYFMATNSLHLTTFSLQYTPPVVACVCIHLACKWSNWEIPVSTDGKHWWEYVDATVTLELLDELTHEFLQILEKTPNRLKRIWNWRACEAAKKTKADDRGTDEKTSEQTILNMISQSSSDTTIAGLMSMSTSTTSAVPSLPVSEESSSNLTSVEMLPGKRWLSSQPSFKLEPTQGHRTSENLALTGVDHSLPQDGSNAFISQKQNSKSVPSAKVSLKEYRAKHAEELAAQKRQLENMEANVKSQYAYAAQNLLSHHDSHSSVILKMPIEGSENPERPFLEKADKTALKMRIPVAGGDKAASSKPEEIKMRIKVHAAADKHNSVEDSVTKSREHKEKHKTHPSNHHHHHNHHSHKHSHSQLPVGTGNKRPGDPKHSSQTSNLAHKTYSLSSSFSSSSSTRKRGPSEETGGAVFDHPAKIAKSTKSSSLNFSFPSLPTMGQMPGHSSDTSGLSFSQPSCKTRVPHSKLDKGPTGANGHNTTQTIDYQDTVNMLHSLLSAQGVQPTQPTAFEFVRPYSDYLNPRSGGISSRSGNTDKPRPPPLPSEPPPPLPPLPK
Sequence of CDK9/cyclin T1 (P50750 whole entry): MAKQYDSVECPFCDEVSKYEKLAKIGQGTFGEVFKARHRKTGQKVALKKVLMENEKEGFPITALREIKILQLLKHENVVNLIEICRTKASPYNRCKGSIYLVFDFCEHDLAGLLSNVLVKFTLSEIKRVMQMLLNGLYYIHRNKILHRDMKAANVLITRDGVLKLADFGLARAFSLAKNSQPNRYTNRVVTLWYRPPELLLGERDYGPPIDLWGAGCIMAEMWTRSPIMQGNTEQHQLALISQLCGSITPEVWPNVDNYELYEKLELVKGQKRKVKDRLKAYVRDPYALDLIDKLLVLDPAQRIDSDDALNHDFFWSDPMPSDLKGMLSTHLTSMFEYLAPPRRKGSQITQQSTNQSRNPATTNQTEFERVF

As for `CC(C)(C)OC(=O)N1CCN(C(=O)c2ccc(Nc3nccc(-c4ccc(F)cc4OCc4ccccc4)n3)cc2)CC1`, the IC50 is 0.73 µM with A-431; 1.74 µM in the assay on NCI-H1975; 0.23 µM in the assay on PANC-1; 10.2 µM with HCT-116; 0.0855 µM at CDK9/cyclin T1; 0.924 µM in assay [1]. Moreover, the IC50 with L02 was 5.69 µM; in the assay with A549, 1.61 µM. Further, in the assay filed under Homo sapiens, the Selectivity Index is 10.4.
Turning to `O=C(c1ccc(Nc2nccc(-c3ccc(F)cc3OCc3ccccc3)n2)cc1)N1CCNCC1`, the IC50 in the assay with A-431 came to 3.36 µM; in the assay with NCI-H1975, 2.23 µM; with PANC-1 it was 2.87 µM; in the assay on HCT-116 it was 2.39 µM; in the assay on L02, 5.71 µM.
On to `O=C(NCCN1CCCCC1)c1ccc(Nc2nccc(-c3ccc(F)cc3OCc3ccccc3)n2)cc1`, for which the IC50 with A-431 was found to be 1.84 µM; in the assay with NCI-H1975, 5.83 µM; in the assay with PANC-1, 1.6 µM; with HCT-116, 1.27 µM; with L02, 3.02 µM; with A549 it was 8.47 µM.
`O=C(NCCO)c1ccc(Nc2nccc(-c3ccc(F)cc3OCc3ccccc3)n2)cc1`: the IC50 with A-431 was found to be 6.33 µM; in the assay on NCI-H1975, 19 µM; in the assay on PANC-1, 7.19 µM; with HCT-116 it was 15.3 µM; in the assay on L02 it was 23.3 µM; in the assay on A549, 17.7 µM.
For `O=C(NCCN1CCOCC1)c1ccc(Nc2nccc(-c3ccc(F)cc3OCc3ccccc3)n2)cc1`, the IC50 amounted to 16.6 µM in the assay on A-431; 10.6 µM in the assay on NCI-H1975; 16.5 µM in the assay with PANC-1; 18 µM in the assay on HCT-116; 18.9 µM in the assay with L02.
`COc1cc(F)ccc1-c1ncnc(Nc2cccc(C[S@](C)(=N)=O)c2)n1` [ATUVECICLIB]: the IC50 in the assay on A-431 is 0.34 µM; with NCI-H1975 it was 0.72 µM; in the assay with PANC-1, 0.11 µM; with HCT-116, 0.26 µM; in the assay with L02, 2.55 µM.
`CN1CCN(C(=O)c2ccc(Nc3nccc(-c4ccc(F)cc4OCc4ccccc4)n3)cc2)CC1`: the IC50 is 1.05 µM in the assay with A-431; 1.21 µM in the assay with NCI-H1975; 2.48 µM in the assay with PANC-1; 5.56 µM in the assay on HCT-116; 5.28 µM in the assay on L02; 2.38 µM in the assay with A549.
As to `CNCCNC(=O)c1ccc(Nc2nccc(-c3ccc(F)cc3OCc3ccccc3)n2)cc1`, the IC50 with A-431 is 2.84 µM; in the assay with NCI-H1975 it was 1.15 µM; in the assay on PANC-1 it was 3.9 µM; in the assay on HCT-116, 3.3 µM; in the assay with L02 it was 18.7 µM; in the assay on A549, 3.8 µM.
`O=C(O)c1ccc(Nc2nccc(-c3ccc(F)cc3OCc3ccccc3)n2)cc1`: the IC50 turned out to be 7.28 µM in the assay on A-431; 8.35 µM with NCI-H1975; 12.7 µM with PANC-1; 9.69 µM with HCT-116; 0.0862 µM at CDK9/cyclin T1; 0.636 µM in [1]. In addition, the IC50 in the assay with L02 was determined as 22.2 µM. Besides, the Selectivity Index in the assay listed under Homo sapiens came to 7.4.
Turning to `CNCCNC(=O)c1ccc(Nc2nccc(-c3ccc(F)cc3OC)n2)cc1`, the IC50 in the assay on A-431 was found to be 6.7 µM; with NCI-H1975 it was 9.61 µM; with PANC-1, 9.41 µM; in the assay on HCT-116, 16.3 µM; in the assay with L02, 22.7 µM; with A549, 10.1 µM.
In the case of `O=C(NCCCN1CCOCC1)c1ccc(Nc2nccc(-c3ccc(F)cc3OCc3ccccc3)n2)cc1`, the IC50 came out at 2.52 µM in the assay on A-431; 2.71 µM in the assay with NCI-H1975; 2 µM in the assay on PANC-1; 2.75 µM in the assay on HCT-116; 14.5 µM in the assay on L02; 4.04 µM in the assay with A549.
Consider `COc1ccccc1-c1cc(Nc2cccc(CS(N)(=O)=O)c2)ncn1`, for which the IC50 in assay [2] was above 2 µM.
Compound `CC(C)c1c2cc(-c3ccnc(N[C@H]4CC[C@H](NC5CCOCC5)CC4)n3)ccc2nn1C` registered an IC50 in assay [2] of 0.4 µM.
In the case of `CCN(CC)CCNC(=O)c1ccc(Nc2nccc(-c3ccc(F)cc3OCc3ccccc3)n2)cc1`, the IC50 was found to be 1.32 µM with A-431; 1.2 µM in the assay on NCI-H1975; 1.08 µM in the assay with PANC-1; 0.13 µM in the assay on HCT-116; 0.0267 µM on CDK9/cyclin T1; 0.796 µM in [1]. The half-inhibitory concentration (IC50) in the assay on L02 came to 3.69 µM. Also, in the assay filed under Homo sapiens, the Selectivity Index was 29.8.
Regarding `CC(C)N(CCNC(=O)c1ccc(Nc2nccc(-c3ccc(F)cc3OCc3ccccc3)n2)cc1)C(C)C`, the IC50 in the assay with A-431 amounted to 0.59 µM; with NCI-H1975, 0.86 µM; in the assay with PANC-1, 0.56 µM; with HCT-116, 0.37 µM; on CDK9/cyclin T1 it was 0.0596 µM; in [1], 0.915 µM. The IC50 with L02 was 2.08 µM. The Selectivity Index in the assay listed under Homo sapiens is 15.3.
In assay [2], `COc1cc(F)ccc1-c1ccnc(NC(=O)[C@H]2CCC[C@@H](NC(C)=O)C2)c1` returned an IC50 of 2.46 µM.
As for `O=C(NCCF)c1ccc(Nc2nccc(-c3ccc(F)cc3OCc3ccccc3)n2)cc1`, the IC50 in the assay on A-431 is 37.1 µM; in the assay with NCI-H1975, 28.5 µM; in the assay on PANC-1, 52.5 µM; with HCT-116 it was 17.6 µM; in the assay on L02, 35.4 µM.
Regarding `COc1cc(F)ccc1-c1ccnc(Nc2ccc(C(=O)NCCN(C)C)cc2)n1`, the IC50 in the assay with A-431 came out at 3.69 µM; in the assay with NCI-H1975 it was 2.17 µM; with PANC-1 it was 4.58 µM; in the assay with HCT-116, 12.5 µM; with L02, 20.6 µM; with A549 it was 4.67 µM.
